# Columns and labels:
# [1] = test system: MC38 mouse colon cancer cells; test: Antitumor effect in MC38 colon cancer cell-transplanted mouse models (tumor volume); assay type: in vivo; settings: for T/C (%): Day 15; for TV on Day 15 (mm^3, mean ± SE): MC38 s.c. in C57BL/6NCrl mice, n=10
# Method: The mouse colon cancer cell strain MC38 was obtained from Dr. Yoshihiro Hayakawa (University of Toyama, Toyama, Japan). The MC38 cell strain was subjected to culture in an RPMI 1640 medium containing 10% fetal bovine serum and then to subculture in an incubator at 37° C. in the presence of 5% CO2 at a frequency of once or twice a week.
# The MC38 cell suspension was transplanted subcutaneously at 1×10^6 cells/0.1 ml to the right chest of 6-week-old C57BL/6NCrl mice (Charles River Laboratories Japan, Inc.).
# After transplantation, tumors were allowed to grow to reach the tumor volume (TV) of 50 to 300 mm^3. The longer diameter and the shorter diameter of the tumor were measured using a Digimatic caliper and the tumor volume (TV) was calculated in accordance with the following formula.
# The animals were divided into groups each consisting of 10 individuals by stratified random allocation using TV as the indicator. The day on which grouping (n=10) was performed was designated as Day 0.
# Tumor volume changes (T/C) were calculated based on TV on the final day of evaluation (Day 15).
# (§1) An aqueous solution of 0.5% Hypromellose was prepared by adding an adequate amount of an injection solvent (Japanese Pharmacopoeia) to and dissolving Hypromellose at a concentration of 0.5 w/v %. Compound 1, synthesized in accordance with the method disclosed in WO 2017/209155, was grounded in an agate mortar, suspended at a given concentration in the aqueous solution of 0.5% Hypromellose, and then ultrasonically treated to obtain a homogeneous suspension. The resulting suspension was orally administered as Compound 1 once a day for continuous 14 days at 25 mg/kg/day or 50 mg/kg/day. To the control group, the aqueous solution of 0.5% Hypromellose was orally administered once a day for continuous 14 days.
# (§2) As an anti-mouse PD-1 antibody (anti-mPD-1 Ab), CD279 (PD-1) Monoclonal Antibody (RMP1-14), eBioscience (Thermo Fisher Scientific) was diluted to a given concentration with PBS immediately before administration. On the first day of administration (Day 1), the anti-mouse PD-1 antibody was administered intraperitoneally at 0.05 mg/body.
# [2] = Body weight changes in MC38 colon cancer cell-transplanted mouse models; assay type: in vivo
# Method: Body weights were measured using an electronic balance for animals. Body weight changes (BWCn) on the n^th day were determined based on the body weight measured on the n^th day (BWn) in accordance with the following formula.
# as §1, §2
# [3] = Non-Patent Literature 10; cited from earlier work
# [4] = molecular target: T1, RNR (Homo sapiens, UniProt P31350); settings: Non-Patent Literature 7; cited from earlier work
# T1 sequence (P31350 1-389): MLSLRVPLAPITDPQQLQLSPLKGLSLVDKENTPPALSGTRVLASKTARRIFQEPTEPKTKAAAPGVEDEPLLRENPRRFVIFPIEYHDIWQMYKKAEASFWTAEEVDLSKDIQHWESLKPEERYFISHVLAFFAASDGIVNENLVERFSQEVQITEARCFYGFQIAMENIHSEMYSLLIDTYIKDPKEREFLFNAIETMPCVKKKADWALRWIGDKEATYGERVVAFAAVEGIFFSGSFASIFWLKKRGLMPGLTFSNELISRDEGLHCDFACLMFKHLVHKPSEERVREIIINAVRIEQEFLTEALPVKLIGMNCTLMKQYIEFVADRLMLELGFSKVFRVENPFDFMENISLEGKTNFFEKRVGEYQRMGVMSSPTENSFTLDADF
# [5] = Compound 1 25 mg/kg/day p.o. days 1-14
# [6] = Compound 1 50 mg/kg/day p.o. days 1-14
smiles,measurement,setting,value
"Cc1ccc(F)c([C@@H](C)[C@H](NS(=O)(=O)c2ccc(Cl)cc2C(N)=O)c2n[nH]c(=O)o2)c1C [Compound 1, 5-Chloro-2-(N-((1S,2R)-2-(6-fluoro-2,3-dimethylphenyl)-1-(5-oxo-4,5-dihydro-1,3,4-oxadiazol-2-yl)propyl)sulfamoyl)benzamide]",T/C (%),[1]; [5],91.9%
same,"TV on Day 15 (mm^3, mean ± SE)",[1]; [5],868 ± 182 mm^3
same,T/C (%),[1]; [6],29.7%
same,"TV on Day 15 (mm^3, mean ± SE)",[1]; [6],306 ± 79 mm^3
same,TV on Day 15 compared with the control group (Dunnett's test),[1]; Compound 1 at 50 mg/kg/day alone,significantly lower
same,"BWC on Day 15 (%, mean ± SE)",[2]; [5],4.0 ± 0.7%
same,"BWC on Day 15 (%, mean ± SE)",[2]; [6],4.9 ± 1.0%
"NC(=S)NN=Cc1ncccc1N [Compound 3-AP, 3-aminopyridine-2-carboxaldehyde thiosemicarbazone]",Side effects caused in clinical cases,[3],"hypoxia, dyspnea, methemoglobinemia"
"NC(=O)NO [HU, hydroxyurea]",RNR inhibitory activity,[4],very weak
